According to patent publication US12419307B2, “Mixtures comprising indazole pesticides” (FMC Corporation, priority 2019, dated 2025):
Read-outs that look alike come from different tables or passages of the source.

Experiments:
Type in all cases: in vivo
[1] = test system: corn planthopper (Peregrinus maidis (Ashmead)); assay: Test C: corn planthopper control on corn plants, insect mortality after 6 days; settings: Peregrinus maidis, read-out: % Mortality (obs)
Description: (§1) The pest control protection afforded by the mixtures or compositions is not limited, however, to these species. The analysis of enhanced activity between the mixtures or compositions was determined using Colby's equation. The average % mortality data for the test compounds alone were inserted into the Colby's equation. If the observed (obs) average % mortality was higher than “p”, the expected (exp) % mortality, the mixture or composition had enhanced effects. If the observed average % mortality was equal to or lower than the expected mortality, the mixture or composition either had no enhanced effect. For bioassays where insect feeding damage was evaluated, enhanced activity is identified when the observed plant damage is less than the expected plant damage rating; ratings ranged between 0 (no damage) and 10 (dead plant) and each value was converted to a % plant protection. 100−(Obs Plant Damage*10)
For evaluating control of corn planthopper (Peregrinus maidis (Ashmead)) through contact and/or systemic means, the test unit consisted of a small open container with a 3-4-day-old corn (maize) plant inside. White sand was added to the top of the soil prior to application of the test compound.
Test compounds were formulated and sprayed at 250 and/or 50 ppm and/or 10 ppm. After spraying of the formulated test compound, the test units were allowed to dry for 1 h before they were post-infested with ˜15-20 nymphs (18-to-21-day-old). […]

[2] = test system: diamondback moth (Plutella xylostella L.); assay: Test E: diamondback moth control on mustard plants, contact and/or systemic, plant damage rating after 6 days
Description: as §1
For evaluating control of diamondback moth (Plutella xylostella L.) through contact and/or systemic means, each test unit consisted of a small open container with a 10- to 12-day-old mustard plant inside. Test compounds were formulated and sprayed with 3 replications as described for Test A. After spraying, the test units were allowed to dry for 1 hour before they were infested with 30-50 neonate larvae. A black, screened cap was placed on the top of each container. The test units were held for 6 days in a growth chamber at 24-25° C. and 70% relative humidity. Each test unit was then visually assessed for plant damage and rated 0-10, where 0=undamaged and 10=plant is dead; the results are listed in Tables 6a-b.

[3] = test system: fall armyworm (Spodoptera frugiperda (J. E. Smith)); assay: Test E: fall armyworm control on corn plants, plant damage rating and mortality after 6 days; settings: Spodoptera frugiperda, 144 h, read-out: Plant Protection (obs)
Description: as §1
For evaluating control of fall armyworm (Spodoptera frugiperda (J. E. Smith)) the test unit consisted of a small open container with a 4-5-day-old corn (maize) plant inside. This was pre-infested with 10-15 1-day-old larvae on a piece of insect diet. Test compounds were formulated and sprayed with 3 replications as described for Test A. After spraying of the formulated test compound, the test units were maintained in a growth chamber for 6 days at 25° C. and 70% relative humidity. Plant feeding damage was then visually assessed based on foliage consumed, and larvae were assessed for mortality. Each test unit was then visually assessed for plant damage and rated 0-10, where 0=undamaged and 10=plant is dead; the results are listed in Tables 6d-i.

[4] = test system: cotton melon aphid (Aphis gossypii Glover); assay: Test D: cotton melon aphid control on okra plants, insect mortality after 6 days; settings: Aphis gossypii, read-out: % Mortality (obs)
Method in brief: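 Okra plants (6–7 days old) pre-infested with 30–40 aphids by cut-leaf transfer were sprayed, three replicates, then held 6 days at 19-21° C and 50-70% RH before mortality scoring. Mixture enhancement was judged against Colby-expected % mortality.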

[5] = test system: Potato Leafhopper (Empoasca fabae Harris); assay: Test C: Potato Leafhopper control on bean plants, insect mortality after 6 days; settings: read-out: % Mortality (obs)
Method in brief: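 Sprays (3 replicates) were applied to 5- to 6-day-old Longio bean plants with one primary leaf excised, which were dried 1 h and infested with 5 adult leafhoppers (18–21 days old). Mortality was scored after 6 days at 19-21° C and 50-70% RH. Mixture enhancement was judged against expected mortality by Colby's equation.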

CC(C)(CS(C)(=O)=O)NC(=O)c1ccc(F)c2nn(-c3cccnc3)cc12 [Cpd 3, N-[1,1-dimethyl-2-(methylsulfonyl)ethyl]-7-fluoro-2-(3-pyridinyl)-2H-indazole-4-carboxamide]
mortality at 50 ppm ([1]; 96 h, Table 4d): 8.3% | mortality at 250 ppm ([1]; 96 h, Table 4d): 0% | mortality at 50 ppm ([1]; Table 4e): 5% | mortality at 250 ppm ([1]; Table 4e): 1.2% | Plant Protection (obs) ([2]; Table 6a, 50 ppm): 0.0 | Plant Protection (obs) ([2]; Table 6a, 250 ppm): 0.0 | Plant Protection (obs) ([2]; Table 6b, 50 ppm): 0.0 | Plant Protection (obs) ([2]; Table 6b, 250 ppm): 0.0 | pest or weed control at 50 ppm ([3]; Table 6e): 0% | pest or weed control at 250 ppm ([3]; Table 6e): 0% | mortality at 0.02 ppm ([4]; 5 h, Table 5h): 37.4% | mortality at 0.08 ppm ([4]; 5 h, Table 5h): 43.5% | mortality at 0.02 ppm ([4]; 120 h, Table 5d): 20% | mortality at 0.08 ppm ([4]; 120 h, Table 5d): 43.2% | mortality at 0.02 ppm ([4]; Table 5a): 20% | mortality at 0.08 ppm ([4]; Table 5a): 43.2% | mortality at 0.02 ppm ([4]; Table 5b): 20% | mortality at 0.08 ppm ([4]; Table 5b): 43.2% | mortality at 0.02 ppm ([4]; Table 5c): 0% | mortality at 0.08 ppm ([4]; Table 5c): 20% | mortality at 0.02 ppm ([4]; Table 5e): 19.9% | mortality at 0.08 ppm ([4]; Table 5e): 31.1% | mortality at 0.02 ppm ([4]; Table 5f): 17.6% | mortality at 0.08 ppm ([4]; Table 5f): 39% | mortality at 0.02 ppm ([4]; Table 5g): 15.8% | mortality at 0.08 ppm ([4]; Table 5g): 30.6% | mortality at 50 ppm ([5]; Table 4a): 0% | mortality at 250 ppm ([5]; Table 4a): 0% | mortality at 50 ppm ([5]; Table 4b): 13.3% | mortality at 250 ppm ([5]; Table 4b): 0% | mortality at 50 ppm ([5]; Table 4c): 6.7% | mortality at 250 ppm ([5]; Table 4c): 0%

CC1(NC(=O)c2cccc3nn(-c4cccnc4)cc23)CC1 [Cpd 4, N-(1-methylcyclopropyl)-2-(3-pyridinyl)-2H-indazole-4-carboxamide]
mortality at 50 ppm ([1]; 96 h, Table 4d): 0% | mortality at 250 ppm ([1]; 96 h, Table 4d): 9.1% | mortality at 50 ppm ([1]; Table 4e): 38.9% | mortality at 250 ppm ([1]; Table 4e): 34.8% | mortality at 50 ppm ([1]; Table 4f): 1.8% | mortality at 250 ppm ([1]; Table 4f): 10.8% | mortality at 50 ppm ([1]; Table 4g): 1.8% | mortality at 250 ppm ([1]; Table 4g): 10.8% | Plant Protection (obs) ([2]; Table 6a, 50 ppm): 0.0 | Plant Protection (obs) ([2]; Table 6a, 250 ppm): 0.0 | Plant Protection (obs) ([2]; Table 6b, 50 ppm): 0.0 | Plant Protection (obs) ([2]; Table 6b, 250 ppm): 0.0 | pest or weed control at 50 ppm ([3]; Table 6e): 0% | pest or weed control at 250 ppm ([3]; Table 6e): 0% | pest or weed control at 50 ppm ([3]; Table 6f): 0% | pest or weed control at 250 ppm ([3]; Table 6f): 0% | pest or weed control at 50 ppm ([3]; Table 6g): 0% | pest or weed control at 250 ppm ([3]; Table 6g): 20% | pest or weed control at 50 ppm ([3]; Table 6i): 0% | pest or weed control at 250 ppm ([3]; Table 6i): 0% | pest or weed control at 50 ppm ([3]; Table 6h): 0% | pest or weed control at 250 ppm ([3]; Table 6h): 20% | pest or weed control at 50 ppm ([3]; Table 6d): 0% | pest or weed control at 250 ppm ([3]; Table 6d): 0% | mortality at 0.2 ppm ([4]; 5 h, Table 5h): 44.6% | mortality at 0.5 ppm ([4]; 5 h, Table 5h): 68.7% | mortality at 0.2 ppm ([4]; 120 h, Table 5d): 48.3% | mortality at 0.5 ppm ([4]; 120 h, Table 5d): 58.9% | mortality at 0.2 ppm ([4]; Table 5a): 48.3% | mortality at 0.5 ppm ([4]; Table 5a): 58.9% | mortality at 0.2 ppm ([4]; Table 5b): 48.3% | mortality at 0.5 ppm ([4]; Table 5b): 58.9% | mortality at 0.2 ppm ([4]; Table 5c): 6.7% | mortality at 0.5 ppm ([4]; Table 5c): 6.7% | mortality at 0.2 ppm ([4]; Table 5e): 30.8% | mortality at 0.5 ppm ([4]; Table 5e): 69.7% | mortality at 0.2 ppm ([4]; Table 5f): 40.7% | mortality at 0.5 ppm ([4]; Table 5f): 73.4% | mortality at 0.2 ppm ([4]; Table 5g): 21% | mortality at 0.5 ppm ([4]; Table 5g): 45.1% | mortality at 0.2 ppm ([4]; Table 5i): 33.5% | mortality at 0.5 ppm ([4]; Table 5i): 80.3% | mortality at 0.2 ppm ([4]; Table 5j): 33.5% | mortality at 0.5 ppm ([4]; Table 5j): 80.3% | mortality at 0.2 ppm ([4]; Table 5k): 40.2% | mortality at 0.5 ppm ([4]; Table 5k): 69.3% | mortality at 0.2 ppm ([4]; Table 5l): 40.2% | mortality at 0.5 ppm ([4]; Table 5l): 69.3% | mortality at 0.2 ppm ([4]; Table 5m): 42.5% | mortality at 0.5 ppm ([4]; Table 5m): 65% | mortality at 0.2 ppm ([4]; Table 5n): 57.1% | mortality at 0.5 ppm ([4]; Table 5n): 73.9% | mortality at 50 ppm ([5]; Table 4a): 7.1% | mortality at 250 ppm ([5]; Table 4a): 6.7% | mortality at 50 ppm ([5]; Table 4b): 0% | mortality at 250 ppm ([5]; Table 4b): 14.3% | mortality at 50 ppm ([5]; Table 4c): 26.7% | mortality at 250 ppm ([5]; Table 4c): 0%
